Laboratory results as given in patent US6436630B1, “Method for testing the toxicity of chemical substances using gastropods” (priority 1998, dated 2002).
Like-named read-outs stand apart in the source and are kept apart here.

Tests used:
[1] = tested on: foot mucosa of slugs of species Arion; assay type: in vivo; conditions: Arion; for % MP, mucus production: 1% w/v (HPβCD 5% w/v) in PBS, 15 min; for ALP released into PBS / LDH released into PBS / Protein released into PBS: 1% w/v (HPβCD 5% w/v), total mean of 7 samples/day per slug
[2] = tested on: foot mucosa of slugs of species Limax; assay type: in vivo; conditions: Limax; for % MP, mucus production as % of the body weight at the start of the day before the treatment: 1% w/v (HPβCD 5% w/v) in PBS, 15 min; for ALP released into PBS / LDH released into PBS / Protein released into PBS: 1% w/v (HPβCD 5% w/v), total mean of 7 samples/day per slug
Method: Slugs of the species Limax are terrestial slugs have lungs and also a small internal shell. As test substances hydroxypropyl-β-cyclodextrin (HPβCD), sodium tauro-24,25-dihdrofiisidate (STDHF) and sodium deoxycholate were selected. Benzalkonium chloride (1% w/v), HPβCD (5% w/v), STDHF (1% w/v) and SDC (1% w/v) were prepared in phosphate buffered saline (PBS, pH 7.4).
The enzymes lactate dehydrogenase (LDH) and alkaline phosphatase (ALP) and total protein released into the PBS were determined. The change in body weight and mucus production caused by the treatment were examined.

CC(=O)OC1CC2(C)C(CC(O)C3C4(C)CCC(O)C(C)C4CCC32C)C1=C(CCCC(C)C)C(=O)NCCS(=O)(=O)O (stereo not drawn) [STDHF, sodium tauro-24,25-dihdrofiisidate]
ranking order of increasing toxicity [1]: PBS, 5% HPβCD<1% STDHF<1% SDC and 1% BAC
LDH release (in words) ([1]; 1% w/v): slightly increased LDH release
body weight change (in words) ([1]; 1% w/v): decrease in body weight
mucus production (in words) ([1]; HPβCD 5% w/v, STDHF 1% w/v): increased mucus production
% MP, mucus production ([1]; day 1): 7.7%
ALP released into PBS ([1]; day 1): 21.77 U/L
LDH released into PBS ([1]; day 1): 18.22 U/L
Protein released into PBS ([1]; day 1): 15.68 μg/30μL
% MP, mucus production ([1]; day 2): 3.85%
ALP released into PBS ([1]; day 2): 9.39 U/L
LDH released into PBS ([1]; day 2): 14.44 U/L
Protein released into PBS ([1]; day 2): 2.84 μg/30μL
% MP, mucus production ([1]; day 3): 3.45%
ALP released into PBS ([1]; day 3): 8.66 U/L
LDH released into PBS ([1]; day 3): 24.04 U/L
Protein released into PBS ([1]; day 3): 2.79 μg/30μL
% MP, mucus production ([1]; day 4): 4.81%
ALP released into PBS ([1]; day 4): 15.14 U/L
LDH released into PBS ([1]; day 4): 20.53 U/L
Protein released into PBS ([1]; day 4): 4.55 μg/30μL
% MP, mucus production ([1]; day 5): 4.41%
ALP released into PBS ([1]; day 5): 4.81 U/L
LDH released into PBS ([1]; day 5): 25.65 U/L
Protein released into PBS ([1]; day 5): 4.18 μg/30μL
ranking order of increasing toxicity [2]: PBS, 5% HPβCD<1% STDHF<1% SDC and 1% BAC
LDH release (in words) ([2]; 1% w/v): slightly increased LDH release
body weight change (in words) ([2]; 1% w/v): decrease in body weight
mucus production (in words) ([2]; HPβCD 5% w/v, STDHF 1% w/v): increased mucus production
% MP, mucus production as % of the body weight at the start of the day before the treatment ([2]; day 1): 6.85%
ALP released into PBS ([2]; day 1): 3.81 U/L
LDH released into PBS ([2]; day 1): 1.65 U/L
Protein released into PBS ([2]; day 1): 14.48 μg/30μL
% MP, mucus production as % of the body weight at the start of the day before the treatment ([2]; day 2): 6.16%
ALP released into PBS ([2]; day 2): 6.49 U/L
LDH released into PBS ([2]; day 2): 4.29 U/L
Protein released into PBS ([2]; day 2): 11.67 μg/30μL
% MP, mucus production as % of the body weight at the start of the day before the treatment ([2]; day 3): 7.52%
ALP released into PBS ([2]; day 3): 5.09 U/L
LDH released into PBS ([2]; day 3): 6.02 U/L
Protein released into PBS ([2]; day 3): 6.27 μg/30μL
% MP, mucus production as % of the body weight at the start of the day before the treatment ([2]; day 4): 6.75%
ALP released into PBS ([2]; day 4): 3.28 U/L
LDH released into PBS ([2]; day 4): 18.23 U/L
Protein released into PBS ([2]; day 4): 10.4 μg/30μL
% MP, mucus production as % of the body weight at the start of the day before the treatment ([2]; day 5): 6.6%
ALP released into PBS ([2]; day 5): 3.62 U/L
LDH released into PBS ([2]; day 5): 10.63 U/L
Protein released into PBS ([2]; day 5): 10.36 μg/30μL
